This is an account of results in US12252524B2, “GIP/GLP1 co-agonist compounds” (Eli Lilly and Company, priority 2018, dated 2025).

Assay [1] has as its target human GLP-1 receptor (GLP-1R) (Homo sapiens, UniProt P43220). Briefly: cAMP pharmacological functional assay in presence of casein, hGLP-1R. To be noted: HEK293 cells expressing hGLP-1R, 0.1% Casein, geometric mean; read-out: hGLP1R cAMP Rel EC50 nM (SEM, n). Format: cell-based.
The target of assay [2] is T1, gastric inhibitory peptide receptor (GIPR) (Homo sapiens, UniProt P48546).
T1 sequence (P48546 22-466): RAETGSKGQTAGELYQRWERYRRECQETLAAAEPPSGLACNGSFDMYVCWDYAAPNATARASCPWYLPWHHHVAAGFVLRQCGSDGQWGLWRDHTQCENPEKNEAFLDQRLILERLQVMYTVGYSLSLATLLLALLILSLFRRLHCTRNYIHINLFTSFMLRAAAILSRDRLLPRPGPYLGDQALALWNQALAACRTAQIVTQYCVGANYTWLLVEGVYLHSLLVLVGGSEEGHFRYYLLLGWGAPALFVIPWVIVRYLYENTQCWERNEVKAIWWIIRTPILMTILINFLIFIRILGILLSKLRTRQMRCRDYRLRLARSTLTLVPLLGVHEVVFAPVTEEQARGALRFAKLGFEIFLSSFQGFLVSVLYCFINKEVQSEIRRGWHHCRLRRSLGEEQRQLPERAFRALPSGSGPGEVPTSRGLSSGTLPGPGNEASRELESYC
Briefly: cAMP pharmacological functional assay in presence of casein, hGIPR. The format is cell-based. The note with it: HEK293 cells expressing hGIPR, 0.1% Casein, geometric mean; read-out: hGIPR cAMP Rel EC50 nM (SEM, n).

Numbered stars: 1 amine (or outer) side, 2 acyl side, 3 side chain; on linkers, the order of the positions; unused ones are H or OH. Square brackets hold non-standard residues; d marks the D form. Side chains are listed from the residue outwards. Peptide text beside a SMILES is read from it. * marks the point of attachment. C20 diacid = O=C(O)CCCCCCCCCCCCCCCCCCC(=O)*; αMePhe(2-F) = C[C@](N)(Cc1ccccc1F)C(=O)O; γGlu = O=C(O)[C@H](CCC(=O)[*:2])N[*:1]; αMeF = C[C@](N)(Cc1ccccc1)C(=O)O; αMeL = CC(C)C[C@](C)(N)C(=O)O; AEEA = NCCOCCOCC(=O)O; Aib = CC(C)(N)C(=O)O

Chain of human GLP-1 receptor (GLP-1R) (P43220 24-463): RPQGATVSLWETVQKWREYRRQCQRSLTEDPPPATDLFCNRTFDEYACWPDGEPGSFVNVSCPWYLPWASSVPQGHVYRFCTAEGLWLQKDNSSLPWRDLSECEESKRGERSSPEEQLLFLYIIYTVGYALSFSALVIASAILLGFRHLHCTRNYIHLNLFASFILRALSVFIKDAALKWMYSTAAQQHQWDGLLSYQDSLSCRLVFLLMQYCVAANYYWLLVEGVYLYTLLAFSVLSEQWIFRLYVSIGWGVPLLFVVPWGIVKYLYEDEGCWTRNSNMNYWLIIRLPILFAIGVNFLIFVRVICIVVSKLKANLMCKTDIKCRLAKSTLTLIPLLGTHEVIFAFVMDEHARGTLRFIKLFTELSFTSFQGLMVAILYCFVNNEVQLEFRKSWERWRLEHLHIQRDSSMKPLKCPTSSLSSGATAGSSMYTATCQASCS

Turning to `CC[C@H](C)[C@H](NC(=O)[C@H](CC(C)C)NC(=O)[C@H](Cc1ccc(O)cc1)NC(=O)[C@H](CCC(=O)O)NC(=O)[C@@H](NC(=O)[C@H](Cc1ccccc1)NC(=O)[C@H](CCC(=O)O)NC(=O)C(C)(C)NC(=O)[C@H](CCC(N)=O)NC(=O)[C@H](C)NC(=O)[C@H](CCCCNC(=O)COCCOCCNC(=O)COCCOCCNC(=O)CC[C@H](NC(=O)CCCCCCCCCCCCCCCCCCC(=O)O)C(=O)O)NC(=O)[C@H](CCC(=O)O)NC(=O)[C@H](CC(=O)O)NC(=O)[C@H](CC(C)C)NC(=O)[C@](C)(CC(C)C)NC(=O)[C@@H](NC(=O)[C@H](CO)NC(=O)[C@](C)(Cc1ccccc1)NC(=O)[C@H](CC(=O)O)NC(=O)[C@H](CO)NC(=O)[C@@H](NC(=O)[C@](C)(Cc1ccccc1F)NC(=O)[C@@H](NC(=O)CNC(=O)[C@H](CCC(=O)O)NC(=O)C(C)(C)NC(=O)[C@@H](N)Cc1ccc(O)cc1)[C@@H](C)O)[C@@H](C)O)[C@@H](C)CC)[C@@H](C)CC)C(=O)N[C@@H](CCC(=O)O)C(=O)NCC(=O)NCC(=O)N1CCC[C@H]1C(=O)N[C@@H](CO)C(=O)N[C@@H](CO)C(=O)NCC(=O)N[C@@H](C)C(=O)N1CCC[C@H]1C(=O)N1CCC[C@H]1C(=O)N1CCC[C@H]1C(=O)N[C@@H](CO)C(N)=O` [Example 159] (H-Y[Aib]EGT[αMePhe(2-F)]TSD[αMeF]SI[αMeL]LDEK([AEEA-AEEA-γGlu-C20 diacid])AQ[Aib]EFIEYLIEGGPSSGAPPPS-NH2), the figures for the EC50 in assay [1] and in assay [2] were 0.33 nM and 4.6 nM, respectively.
The corresponding values for `CC[C@H](C)[C@H](NC(=O)[C@H](CC(C)C)NC(=O)[C@H](Cc1ccc(O)cc1)NC(=O)[C@@H](CCC(=O)O)NC(=O)[C@@H](NC(=O)[C@H](Cc1ccccc1)NC(=O)[C@@H](NC(=O)C(C)(C)NC(=O)[C@H](CCC(N)=O)NC(=O)[C@H](C)NC(=O)[C@H](CCCCNC(=O)COCCOCCNC(=O)COCCOCCNC(=O)CC[C@H](NC(=O)CC[C@H](NC(=O)CCCCCCCCCCCCCCCCCCC(=O)O)C(=O)O)C(=O)O)NC(=O)[C@H](CCC(=O)O)NC(=O)[C@H](CC(=O)O)NC(=O)[C@H](CC(C)C)NC(=O)[C@](C)(CC(C)C)NC(=O)[C@@H](NC(=O)[C@H](CO)NC(=O)[C@H](Cc1c[nH]cn1)NC(=O)[C@H](CC(=O)O)NC(=O)[C@H](CO)NC(=O)[C@@H](NC(=O)[C@](C)(Cc1ccccc1F)NC(=O)[C@@H](NC(=O)CNC(=O)[C@H](CCC(=O)O)NC(=O)C(C)(C)NC(=O)[C@@H](N)Cc1ccc(O)cc1)[C@@H](C)O)[C@@H](C)O)[C@@H](C)CC)[C@@H](C)O)[C@@H](C)CC)C(=O)N[C@@H](CCC(=O)O)C(=O)NCC(=O)NCC(=O)N1CCC[C@H]1C(=O)N[C@@H](CO)C(=O)N[C@@H](CO)C(=O)NCC(N)=O` [Example 161] (H-Y[Aib]EGT[αMePhe(2-F)]TSDHSI[αMeL]LDEK([AEEA-AEEA-γGlu-γGlu-C20 diacid])AQ[Aib]TFI[dE]YLIEGGPSSG-NH2) are 4.8 nM and 0.254 nM.
With `CC[C@H](C)[C@H](NC(=O)[C@H](CC(C)C)NC(=O)[C@H](Cc1c[nH]cn1)NC(=O)[C@@H](CCC(=O)O)NC(=O)[C@@H](NC(=O)[C@H](Cc1ccccc1)NC(=O)[C@@H](NC(=O)C(C)(C)NC(=O)[C@H](CCC(N)=O)NC(=O)[C@H](C)NC(=O)[C@H](CCCCNC(=O)COCCOCCNC(=O)COCCOCCNC(=O)CC[C@H](NC(=O)CC[C@H](NC(=O)CCCCCCCCCCCCCCCCCCC(=O)O)C(=O)O)C(=O)O)NC(=O)[C@H](CCC(=O)O)NC(=O)[C@H](CC(=O)O)NC(=O)[C@H](CC(C)C)NC(=O)[C@](C)(CC(C)C)NC(=O)[C@@H](NC(=O)[C@H](CO)NC(=O)[C@H](Cc1c[nH]cn1)NC(=O)[C@H](CC(=O)O)NC(=O)[C@H](CO)NC(=O)[C@@H](NC(=O)[C@](C)(Cc1ccccc1F)NC(=O)[C@@H](NC(=O)CNC(=O)[C@H](CCC(=O)O)NC(=O)C(C)(C)NC(=O)[C@@H](N)Cc1ccc(O)cc1)[C@@H](C)O)[C@@H](C)O)[C@@H](C)CC)[C@@H](C)O)[C@@H](C)CC)C(=O)N[C@@H](CCC(=O)O)C(=O)NCC(=O)NCC(=O)N1CCC[C@H]1C(=O)N[C@@H](CO)C(=O)N[C@@H](CO)C(=O)NCC(N)=O` [Example 162] (H-Y[Aib]EGT[αMePhe(2-F)]TSDHSI[αMeL]LDEK([AEEA-AEEA-γGlu-γGlu-C20 diacid])AQ[Aib]TFI[dE]HLIEGGPSSG-NH2; N-terminus assumed), the EC50 is 36 nM in assay [1] and 4.56 nM in assay [2].
`CC[C@H](C)[C@H](NC(=O)[C@H](CC(C)C)NC(=O)[C@H](Cc1ccc(O)cc1)NC(=O)[C@@H](CCC(=O)O)NC(=O)[C@@H](NC(=O)[C@H](Cc1ccccc1)NC(=O)[C@@H](NC(=O)C(C)(C)NC(=O)[C@H](CCC(N)=O)NC(=O)[C@H](C)NC(=O)[C@H](CCCCNC(=O)COCCOCCNC(=O)COCCOCCNC(=O)CC[C@H](NC(=O)CCCCCCCCCCCCCCCCCCC(=O)O)C(=O)O)NC(=O)[C@H](CCC(=O)O)NC(=O)[C@H](CC(=O)O)NC(=O)[C@H](CC(C)C)NC(=O)[C@](C)(CC(C)C)NC(=O)[C@@H](NC(=O)[C@H](CO)NC(=O)[C@H](Cc1c[nH]cn1)NC(=O)[C@H](CC(=O)O)NC(=O)[C@H](CO)NC(=O)[C@@H](NC(=O)[C@](C)(Cc1ccccc1F)NC(=O)[C@@H](NC(=O)CNC(=O)[C@H](CCC(=O)O)NC(=O)C(C)(C)NC(=O)[C@@H](N)Cc1ccc(O)cc1)[C@@H](C)O)[C@@H](C)O)[C@@H](C)CC)[C@@H](C)O)[C@@H](C)CC)C(=O)N[C@H](CCC(=O)O)C(=O)NCC(=O)NCC(=O)N1CCC[C@H]1C(=O)N[C@@H](CO)C(=O)N[C@@H](CO)C(=O)NCC(=O)N[C@@H](C)C(=O)N1CCC[C@H]1C(=O)N1CCC[C@H]1C(=O)N1CCC[C@H]1C(=O)N[C@@H](CO)C(N)=O` [Example 164] (H-Y[Aib]EGT[αMePhe(2-F)]TSDHSI[αMeL]LDEK([AEEA-AEEA-γGlu-C20 diacid])AQ[Aib]TFI[dE]YLI[dE]GGPSSGAPPPS-NH2): the EC50 turned out to be 15.6 nM in assay [1] and 3.09 nM in assay [2].
The corresponding values for `CC[C@H](C)[C@H](NC(=O)[C@H](CC(C)C)NC(=O)[C@](C)(Cc1ccccc1)NC(=O)[C@@H](CCC(=O)O)NC(=O)[C@@H](NC(=O)[C@H](Cc1ccccc1)NC(=O)[C@@H](NC(=O)C(C)(C)NC(=O)[C@H](CCC(N)=O)NC(=O)[C@H](C)NC(=O)[C@H](CCCCNC(=O)COCCOCCNC(=O)COCCOCCNC(=O)CC[C@H](NC(=O)CCCCCCCCCCCCCCCCCCC(=O)O)C(=O)O)NC(=O)[C@H](CCC(=O)O)NC(=O)[C@H](CC(=O)O)NC(=O)[C@H](CC(C)C)NC(=O)[C@](C)(CC(C)C)NC(=O)[C@@H](NC(=O)[C@H](CO)NC(=O)[C@H](Cc1c[nH]cn1)NC(=O)[C@H](CC(=O)O)NC(=O)[C@H](CO)NC(=O)[C@@H](NC(=O)[C@](C)(Cc1ccccc1F)NC(=O)[C@@H](NC(=O)CNC(=O)[C@H](CCC(=O)O)NC(=O)C(C)(C)NC(=O)[C@@H](N)Cc1ccc(O)cc1)[C@@H](C)O)[C@@H](C)O)[C@@H](C)CC)[C@@H](C)O)[C@@H](C)CC)C(=O)N[C@H](CCC(=O)O)C(=O)NCC(=O)NCC(=O)N1CCC[C@H]1C(=O)N[C@@H](CO)C(=O)N[C@@H](CO)C(=O)NCC(=O)N[C@@H](C)C(=O)N1CCC[C@H]1C(=O)N1CCC[C@H]1C(=O)N1CCC[C@H]1C(=O)N[C@@H](CO)C(N)=O` [Example 165] (H-Y[Aib]EGT[αMePhe(2-F)]TSDHSI[αMeL]LDEK([AEEA-AEEA-γGlu-C20 diacid])AQ[Aib]TFI[dE][αMeF]LI[dE]GGPSSGAPPPS-NH2) are 5.81 nM and 1.04 nM.
The corresponding values for `CC[C@H](C)[C@H](NC(=O)[C@H](CC(C)C)NC(=O)[C@H](Cc1ccc(O)cc1)NC(=O)[C@@H](CCC(=O)O)NC(=O)[C@@H](NC(=O)[C@H](Cc1ccccc1)NC(=O)[C@@H](NC(=O)C(C)(C)NC(=O)[C@H](CCC(N)=O)NC(=O)[C@H](C)NC(=O)[C@H](CCCCNC(=O)COCCOCCNC(=O)COCCOCCNC(=O)CC[C@H](NC(=O)CCCCCCCCCCCCCCCCCCC(=O)O)C(=O)O)NC(=O)[C@H](CCC(=O)O)NC(=O)[C@H](CC(=O)O)NC(=O)[C@H](CC(C)C)NC(=O)[C@](C)(CC(C)C)NC(=O)[C@@H](NC(=O)[C@H](CO)NC(=O)[C@H](Cc1c[nH]cn1)NC(=O)[C@H](CC(=O)O)NC(=O)[C@H](CO)NC(=O)[C@@H](NC(=O)[C@](C)(Cc1ccccc1F)NC(=O)[C@@H](NC(=O)CNC(=O)[C@H](CCC(=O)O)NC(=O)C(C)(C)NC(=O)[C@@H](N)Cc1ccc(O)cc1)[C@@H](C)O)[C@@H](C)O)[C@@H](C)CC)[C@@H](C)O)[C@@H](C)CC)C(=O)N[C@@H](CCC(=O)O)C(=O)NCC(=O)NCC(N)=O` [Example 166] (H-Y[Aib]EGT[αMePhe(2-F)]TSDHSI[αMeL]LDEK([AEEA-AEEA-γGlu-C20 diacid])AQ[Aib]TFI[dE]YLIEGG-NH2; N-terminus assumed) are 4.08 nM and 0.355 nM.

A word on the EC50: it is the concentration needed to bring the measured effect to its halfway point.
